Measurements as given in BigSolDB 2.1.

O=P1(O)Oc2ccc3ccccc3c2-c2c(ccc3ccccc23)O1
solubility (mole fraction)
Settings | 288.15 K | 293.15 K | 298.15 K | 303.15 K | 308.15 K | 313.15 K | 318.15 K | 323.15 K | 328.15 K | 333.15 K
in ethanol | 0.00444 | 0.00462 | 0.00489 | 0.00511 | 0.00533 | 0.00544 | 0.00573 | 0.00601 | 0.00632 | 0.00664
in ethyl acetate | 0.000286 | 0.000331 | 0.000387 | 0.000434 | 0.000491 | 0.000521 | 0.000555 | 0.000594 | 0.000618 | 0.000645
in isobutanol | 0.0035 | 0.00381 | 0.0041 | 0.0045 | 0.00491 | 0.00531 | 0.00575 | 0.00622 | 0.00672 | 0.00738
in isopropanol | 0.00339 | 0.00354 | 0.0038 | 0.00404 | 0.00445 | 0.00491 | 0.00563 | 0.00656 | 0.00763 | 0.00891
in methanol | 0.00336 | 0.00347 | 0.00373 | 0.00411 | 0.00452 | 0.00486 | 0.0052 | 0.00555 | 0.00607 | 0.00658
in n-butanol | 0.00698 | 0.00709 | 0.0073 | 0.00763 | 0.00802 | 0.00844 | 0.00887 | 0.00932 | 0.00996 | 0.0107
in n-propanol | 0.00484 | 0.0053 | 0.00588 | 0.00652 | 0.00731 | 0.00832 | 0.00942 | 0.0106 | 0.0123 | 0.0142
